The target of test [1] is T1, wild-type ALK2 (aa172-499) (Homo sapiens (Human), UniProt Q04771). Kind of test: Caliper biochemical peptide phosphorylation assay, ALK2. The note with it: 15 μm ATP, 60 min at 30° C.; read-out: ALK2 EPK (IC50).
Test [2] has as its system BMP response element (BRE) luciferase reporter in HuH7 cells, BMP6 stimulated. Kind of test: BMP signaling reporter gene assay. It is filed as cell-based. The conditions noted are these: Homo sapiens, Huh-7; HuH7 BRE-luciferase, BMP6 100 ng/ml, 5 hours; read-out: MSD BMP RGA IC50.
Test [3] has as its target T1, wild-type ALK2 (aa172-499). In words: ADPGlo biochemical autophosphorylation assay, ALK2. The note with it: 15 μm ATP, 60 min at 32° C. (ADP-Glo turns the ADP formed in a reaction into a luminescent signal.)
The target in test [4] is ALK6 (aa168-495) (Homo sapiens (Human), UniProt O00238). Kind of test: Caliper biochemical peptide phosphorylation assay, ALK6. The note with it: 15 μm ATP, 60 min at 30° C.; read-out: ALK6 EPK (IC50).
Sequence of ALK6 (aa168-495) (O00238 168-495): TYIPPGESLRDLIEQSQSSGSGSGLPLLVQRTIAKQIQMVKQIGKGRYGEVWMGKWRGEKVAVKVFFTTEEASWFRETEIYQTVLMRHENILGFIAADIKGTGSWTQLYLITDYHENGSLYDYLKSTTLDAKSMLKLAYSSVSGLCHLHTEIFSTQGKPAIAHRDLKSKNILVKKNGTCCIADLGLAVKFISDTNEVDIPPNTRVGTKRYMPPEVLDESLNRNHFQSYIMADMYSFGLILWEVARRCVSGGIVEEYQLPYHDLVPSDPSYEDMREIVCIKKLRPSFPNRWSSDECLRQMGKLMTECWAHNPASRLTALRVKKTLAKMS
The target of test [5] is ALK5 (aa162-503) (Homo sapiens (Human), UniProt P36897). In words: Caliper biochemical peptide phosphorylation assay, ALK5. The note with it: 15 μm ATP, 60 min at 30° C.; read-out: ALK5 EPK (IC50).
Sequence of ALK5 (aa162-503) (P36897 162-503): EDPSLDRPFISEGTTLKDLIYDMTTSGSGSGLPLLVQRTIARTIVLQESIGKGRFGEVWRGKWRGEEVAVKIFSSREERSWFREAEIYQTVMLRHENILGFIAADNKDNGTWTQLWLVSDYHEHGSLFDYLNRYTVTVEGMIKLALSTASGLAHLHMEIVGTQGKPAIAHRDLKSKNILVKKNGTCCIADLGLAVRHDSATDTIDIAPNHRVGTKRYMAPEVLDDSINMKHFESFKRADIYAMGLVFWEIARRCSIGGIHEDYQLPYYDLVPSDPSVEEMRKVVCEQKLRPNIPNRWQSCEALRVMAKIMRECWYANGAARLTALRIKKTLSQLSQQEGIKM
Test [6] deals with ALK1 (aa166-493) (Homo sapiens (Human), UniProt P37023). Kind of test: Caliper biochemical peptide phosphorylation assay, ALK1. The conditions noted are these: 15 μm ATP, 60 min at 30° C.; read-out: ALK1 EPK (IC50).
Sequence of ALK1 (aa166-493) (P37023 166-493): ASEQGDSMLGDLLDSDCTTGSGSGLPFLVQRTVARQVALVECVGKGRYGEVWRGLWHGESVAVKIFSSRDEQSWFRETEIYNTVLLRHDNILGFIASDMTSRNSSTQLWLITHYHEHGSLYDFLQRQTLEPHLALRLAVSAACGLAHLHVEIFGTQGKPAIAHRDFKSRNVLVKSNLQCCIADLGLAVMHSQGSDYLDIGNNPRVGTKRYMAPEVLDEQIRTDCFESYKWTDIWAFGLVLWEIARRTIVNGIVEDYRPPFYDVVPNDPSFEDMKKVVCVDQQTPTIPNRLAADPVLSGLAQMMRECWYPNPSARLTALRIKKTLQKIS
Test [7] concerns the target ALK3 (aa198-525) (Homo sapiens (Human), UniProt P36894). Kind of test: ADPGlo biochemical autophosphorylation assay, ALK3. The conditions noted are these: 15 μm ATP, 60 min at 32° C.

Structures are written as SMILES.

Sequence of ALK3 (aa198-525) (P36894 198-525): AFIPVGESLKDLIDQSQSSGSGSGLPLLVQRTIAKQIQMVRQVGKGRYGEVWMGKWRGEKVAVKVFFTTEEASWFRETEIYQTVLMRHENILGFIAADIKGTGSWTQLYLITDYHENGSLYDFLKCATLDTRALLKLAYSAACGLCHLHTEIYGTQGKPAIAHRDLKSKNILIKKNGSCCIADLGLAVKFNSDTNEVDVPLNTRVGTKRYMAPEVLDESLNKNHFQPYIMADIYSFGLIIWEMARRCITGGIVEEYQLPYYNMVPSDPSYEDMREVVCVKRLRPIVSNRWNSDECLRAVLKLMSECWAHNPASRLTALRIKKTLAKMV
T1 sequence (Q04771 172-499): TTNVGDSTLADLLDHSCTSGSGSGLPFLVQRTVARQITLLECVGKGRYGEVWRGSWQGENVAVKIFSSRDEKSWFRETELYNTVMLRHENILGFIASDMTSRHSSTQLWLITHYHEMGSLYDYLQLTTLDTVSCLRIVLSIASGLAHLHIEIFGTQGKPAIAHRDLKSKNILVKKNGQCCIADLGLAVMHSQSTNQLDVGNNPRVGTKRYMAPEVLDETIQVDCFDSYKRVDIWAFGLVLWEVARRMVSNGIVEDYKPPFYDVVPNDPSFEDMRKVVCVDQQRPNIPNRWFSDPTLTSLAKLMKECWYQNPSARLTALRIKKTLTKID

A word on the IC50: it is the concentration that inhibits the measured activity by half. As for `CS(=O)(=O)N1CCC(N2C[C@H]3C[C@@]3(c3ccc(-c4cnc(N)c(C(=O)N[C@H]5CC[C@H](O)CC5)c4)cc3)C2)CC1` [Example 1, 2-amino-N-((1r,4R)-4-hydroxycyclohexyl)-5-(4-((1R,5S)-3-(1-(methylsulfonyl)piperidin-4-yl)-3-azabicyclo[3.1.0]hexan-1-yl)phenyl)nicotinamide], the IC50 in test [1] amounted to 0.009 µM; in test [2] it was 0.076 µM; in test [3], 0.005 µM; in test [4], 0.74 µM; in test [5], 0.56 µM; in test [6], 0.075 µM. For the same molecule, inhibition in test [7] was half-maximal at 0.31 µM (IC50).
With `CC(C)N1C[C@H]2C[C@@]2(c2ccc(-c3cnc(N)c(C(=O)N[C@H]4CC[C@H](O)CC4)c3)cc2)C1` [Example 2, 2-amino-N-((1r,4R)-4-hydroxycyclohexyl)-5-(4-((1R,5S)-3-isopropyl-3-azabicyclo[3.1.0]hexan-1-yl)phenyl)nicotinamide], the IC50 came to 0.011 µM in test [1]; 0.021 µM in test [2]; 0.012 µM in test [3]; 2.5 µM in test [4]; 2.17 µM in test [5]; 0.093 µM in test [6]. In test [7], this molecule gave an IC50 of 1.77 µM.
Consider `C[C@H](c1ccc(-c2cnc(N)c(C(=O)N[C@H]3CC[C@H](O)CC3)c2)cc1)N1CC2(COC2)C1` [Example 3, 5-(4-((R)-1-(2-oxa-6-azaspiro[3.3]heptan-6-yl)ethyl)phenyl)-2-amino-N-((1r,4R)-4-hydroxycyclohexyl)nicotinamide], for which the 50% inhibitory concentration (IC50) in test [1] was found to be 0.011 µM; in test [2], 0.062 µM; in test [3] it was 0.012 µM; in test [4] it was 1.73 µM; in test [5] it was 2.13 µM; in test [6], 0.136 µM. Besides, the IC50 in test [7] stood at 1.05 µM.
As for `C[C@@H](c1ccc(-c2cnc(N)c(C(=O)N[C@H]3CC[C@H](O)CC3)c2)cc1)N1CC2(COC2)C1` [Example 4, 5-(4-((S)-1-(2-oxa-6-azaspiro[3.3]heptan-6-yl)ethyl)phenyl)-2-amino-N-((1r,4R)-4-hydroxycyclohexyl)nicotinamide], the concentration for half-maximal inhibition (IC50) in test [1] stood at 0.013 µM; in test [2], 0.108 µM; in test [3] it was 0.005 µM; in test [4], 1.85 µM; in test [5] it was 2.45 µM; in test [6] it was 0.175 µM. In test [7], the midpoint of inhibition, the IC50, lay at 0.83 µM.
Turning to `CC(C)N1CCC(c2ccc(-c3cnc(N)c(C(=O)N[C@H]4CC[C@H](O)CC4)c3)cc2)C1` (stereo partly drawn) [Example 12, 2-amino-N-((1r,4r)-4-hydroxycyclohexyl)-5-(4-(1-isopropylpyrrolidin-3-yl)phenyl)nicotinamide], in test [6], the IC50 is 0.16 µM.
In the case of `C[C@]1(O)CC[C@H](NC(=O)c2cc(-c3ccc([C@@]45C[C@@H]4CN(C4CCOCC4)C5)cc3)cnc2N)CC1` [Example 14, 2-amino-N-((1r,4R)-4-hydroxy-4-methylcyclohexyl)-5-(4-((1R,5S)-3-(tetrahydro-2H-pyran-4-yl)-3-azabicyclo[3.1.0]hexan-1-yl)phenyl)nicotinamide], the concentration for half-maximal inhibition (IC50) in test [2] was 0.205 µM.
Take `Nc1ncc(-c2ccc(C3CCNC3)cc2)cc1C(=O)N[C@H]1CC[C@H](O)CC1` (stereo partly drawn) [Example 18, 2-amino-N-((1r,4r)-4-hydroxycyclohexyl)-5-(4-(pyrrolidin-3-yl)phenyl)nicotinamide]: the IC50 in test [6] was found to be 0.2 µM.
For the molecule `Nc1ncc(-c2ccc([C@@]34C[C@@H]3CN(C3CCOCC3)C4)cc2)cc1C(=O)N[C@H]1CC[C@H](O)CC1` [Example 19, 2-amino-N-((1r,4R)-4-hydroxycyclohexyl)-5-(4-((1R,5S)-3-(tetrahydro-2H-pyran-4-yl)-3-azabicyclo[3.1.0]hexan-1-yl)phenyl)nicotinamide], the IC50 in test [2] was 0.021 µM; in test [3], 0.012 µM; in test [4], 2.25 µM; in test [6], 0.105 µM.
Consider `Nc1ncc(-c2ccc([C@@]34C[C@@H]3CN(C3CCOCC3)C4)cc2)cc1C(=O)N[C@H]1CC[C@@H](O)CC1` [Example 22, 2-amino-N-((1s,4S)-4-hydroxycyclohexyl)-5-(4-((1R,5S)-3-(tetrahydro-2H-pyran-4-yl)-3-azabicyclo[3.1.0]hexan-1-yl)phenyl)nicotinamide], for which the IC50 in test [1] amounted to 0.016 µM; in test [2], 0.041 µM; in test [3], 0.009 µM; in test [4] it was 3.2 µM; in test [6] it was 0.25 µM.
With `Nc1ncc(-c2ccc([C@@]34C[C@@H]3CN(C3CCC(F)(F)CC3)C4)cc2)cc1C(=O)N[C@H]1CC[C@H](O)CC1` [Example 25, 2-amino-5-(4-((1R,5S)-3-(4,4-difluorocyclohexyl)-3-azabicyclo[3.1.0]hexan-1-yl)phenyl)-N-((1r,4R)-4-hydroxycyclohexyl)nicotinamide], the IC50 in test [1] was determined as 0.018 µM; in test [2], 0.035 µM; in test [3], 0.009 µM; in test [4], 3 µM.
Turning to `Nc1ncc(-c2ccc([C@]34C[C@H]3CN(C3CCC(F)(F)CC3)C4)cc2)cc1C(=O)N[C@H]1CC[C@H](O)CC1` [Example 27, 2-amino-5-(4-((1S,5R)-3-(4,4-difluorocyclohexyl)-3-azabicyclo[3.1.0]hexan-1-yl)phenyl)-N-((1r,4S)-4-hydroxycyclohexyl)nicotinamide], the IC50 is 0.018 µM in test [1]; 0.059 µM in test [2]; 0.01 µM in test [3]; 1.6 µM in test [4]; 0.135 µM in test [6].
For `Nc1ncc(-c2ccc([C@]34C[C@H]3CN(C3CCOCC3)C4)cc2)cc1C(=O)N[C@H]1CC[C@H](O)CC1` [Example 33], in that order: 0.02 µM, 0.026 µM, 0.01 µM, 2 µM and 0.22 µM.
Turning to `C[C@@H]1CCCN1Cc1ccc(-c2cnc(N)c(C(=O)N[C@H]3CC[C@](C)(O)CC3)c2)cc1F` [Example 46, 2-amino-5-(3-fluoro-4-(((R)-2-methylpyrrolidin-1-yl)methyl)phenyl)-N-((1r,4R)-4-hydroxy-4-methylcyclohexyl)nicotinamide], the IC50 in test [1] was 0.025 µM; in test [3] it was 0.024 µM; in test [4], 10 µM; in test [5], 10 µM; in test [7] it was 14.6 µM.
Turning to `Nc1ncc(-c2ccc([C@@]34C[C@@H]3CN(CCF)C4)cc2)cc1C(=O)NC12CCC(O)(CC1)CC2` [Example 57, 2-amino-5-(4-((1R,5S)-3-(2-fluoroethyl)-3-azabicyclo[3.1.0]hexan-1-yl)phenyl)-N-(4-hydroxybicyclo[2.2.2]octan-1-yl)nicotinamide], in test [2], the IC50 stood at 0.144 µM.
Same read-out and setting: with `C[C@]1(O)CC[C@H](NC(=O)c2cc(-c3ccc([C@]45C[C@H]4CN(C4CCOCC4)C5)cc3)cnc2N)CC1` [Example 62] the figure was 0.134 µM.
As to `C[C@@H]1CCCN1Cc1ccc(-c2cnc(N)c(C(=O)N[C@H]3CC[C@](C)(O)CC3)c2)cc1` [Example 72, 2-amino-N-((1r,4R)-4-hydroxy-4-methylcyclohexyl)-5-(4-(((R)-2-methylpyrrolidin-1-yl)methyl)phenyl)nicotinamide], in test [6], the IC50 came to 2.95 µM.
For the molecule `Nc1ncc(-c2ccc([C@]34C[C@H]3CN(CCF)C4)cc2)cc1C(=O)NC12CCC(O)(CC1)CC2` [Example 73, 2-amino-5-(4-((1S,5R)-3-(2-fluoroethyl)-3-azabicyclo[3.1.0]hexan-1-yl)phenyl)-N-(4-hydroxybicyclo[2.2.2]octan-1-yl)nicotinamide], the IC50 in test [2] worked out at 0.13 µM.

The record behind these values is patent publication US10710980B2, “Aminopyridine derivatives and their use as selective ALK-2 inhibitors” (priority 2016, dated 2020).
